Reference: patent publication US20100256145A1, “USE OF KCNQ POTASSIUM CHANNEL OPENERS FOR REDUCING SYMPTOMS OF OR TREATING DISORDERS OR CONDITIONS WHEREIN THE DOPAMINERGIC SYSTEM IS DISRUPTED” (H. LUNDBECK A/S, priority 2007, published 2010)

Experiments:
[1] = test system: d-amphetamine induced hyperactivity in rats; experiment: Amphetamine-induced hyperactivity in the rat (amphetamine antagonism); assay type: in vivo; conditions: read-out: Amphetamine antagonism ED50 (mg/kg) ± std. dev.
Source text: Subjects. Male Wistar rats (Taconic, Denmark) weighing 170-240 g are used. […] Eight rats are used at each dose level and in the parallel control group receiving the vehicle to the test compound plus d-amphetamine and the group receiving vehicle injections only.

basal locomotor activity = experiment: Basal locomotor activity inhibition (motility inhibition) in the rat; assay type: in vivo; conditions: basal locomotor activity without stimulant (sedative properties), std. dev. in brackets
Method: Subjects. Male Wistar rats (Taconic, Denmark) weighing 170-240 g are used. The animals are housed under a 12-hr light/dark cycle under controlled conditions for regular in-door temperature (21±2° C.) and humidity (55±5%) with food and tap water available ad libitum.
Experimental procedure. The experiment is made in normal light conditions in an undisturbed room. […] Immediately after injection of the stimulant, the rats are placed individually in the test cages that are placed in a U-frame, equipped with 4 infrared light sources and photocells. The light beams cross the cage 4 cm above the cage floor. Recording of a motility count requires interruption of adjacent light beams, thus avoiding counts induced by stationary movements of the rat. Motility (counts) is recorded for a period of 2 hours. […] The 100 percent effect of stimulant drug is accordingly calculated to be total motility counts minus baseline. […] The percent responses are converted to percent inhibition from which ED50 values are calculated by means of log-probit analyses. In a parallel set of data, the potential sedative properties (exemplified by basal locomotor activity inhibition) of the test compounds are evaluated using essentially the same procedure with the exception of not administering the stimulant drug at the initiation of locomotor assessment.

[2] = test system: conditioned avoidance response; experiment: Conditioned avoidance response in rats; assay type: in vivo, rat
Method: Subjects. Male Wistar rats (Taconic, Denmark) weighing 150 g at the beginning of the study are used. The rats are housed in pairs and maintained on a 12 h light/dark cycle (lights on 06:00). The animals are fed once daily (approx. 6 pellets/rat) in order to keep the rats at 80% of their free-feeding weight. Water is available ad libitum. Temperature (21±1° C.) and relative humidity (55±5%) are automatically controlled.
Experimental procedure. Conditioned avoidance testing is conducted using four automated shuttle-boxes (ENV-010M, MED-Associates) each placed in a sound-attenuated chamber. Each box is divided into two compartments by a partition with an opening. The position of the animal and crossings from one compartment to the other are detected by two photocells placed on either side of the dividing wall. Upon presentation of the conditioned stimuli (CS), tone and light, the animals have 10s to cross to the other compartment of the shuttle-box in order to turn the CS off (end the trial) and avoid the appearance of the unconditioned stimulus (UCS). If the rat remains in the same compartment for more than 10s, the UCS is presented as 0.5 mA scrambled foot-shocks until escape is performed or 10s in maximal duration. The following behavioural variables are evaluated: avoidance (response to CS within 10s); escape (reponse to CS+UCS); escape failures (failure to respond); intertrial crosses and locomotor activity. The rats are habituated to the shuttle-box 3 min before each test session. During training each test session consists of 30 trials with intertrial intervals varying randomly between 20s and 30s. Training is carried out until the rats display an avoidance of 80% or more, on 3 consecutive days. A test is preceded by a pre-test the day before giving rise to a baseline value for each animal, thus the animals serve as their own control. Seven to eight rats are used at each dose level. A parallel control group receiving the vehicle of the test compound is also included.
Administration of compound. […] All compounds are dissolved in a vehicle of 10% 2-hydroxy-propyl-beta-cyclodextrin (isotonic with glucose, pH 5-7).
Statistical analyses. The effects of compounds on avoidance and escape failure behaviours are statistically evaluated by means of two-way repeated measures ANOVA followed by post hoc comparisons (Student-Newman-Keuls Method) when appropriate. P-levels <0.05 are considered statistically significant.

[3] = test system: choice of the large-but-delayed reward (impulsivity); experiment: Rat T-maze procedure: large-but-delayed vs small-but-immediate reward; assay type: in vivo; conditions: juvenile Wistar rats
Method: Subjects. male Wistar AF rats (28-41 days old) (Centre d′Elevage René Janvier, France) were used. […] During the whole study, tap water was provided ad libitum. Food was restricted to 5-10 g/day/animal in order to maintain animals at 65-75% of their free feeding weight
Experimental procedure. The experiments were performed in two identical T-maze apparatus constructed from opaque grey plastic tubing and consisting of a starting runway (30 cm long) and two arms (35 cm long) each leading to a rectangular black plastic goal box (18 cm large, 30 cm wide, 10 cm high). Removable grey plastic guillotine doors could be inserted into the vertical clefts, situated at the entry of the starting runway and at each end of the arms. One of the goal-boxes (left or right, depending on the rats) was constantly provided with a large reward, the other with a small reward. Large and small rewards consisted, respectively, of 5 and 1 pellets (20 mg, Technical & Scientific Equipment GmbH, Germany). The pellets were placed in a translucent food-cup before each trial.
First phase: habituation. Animals were first subjected to two 5-min sessions of habituation. The rat was gently introduced in the starting runway, which then was closed with a guillotine door inserted in the cleft (referred to as c0 in FIG. 1). The animal was allowed to freely explore the apparatus and to eat food rewards placed in the food cups.
Second phase: pretraining. After a door was placed in the cleft c2 near each goal-box, the rat was introduced in the starting runway. When it entered one of the two arms, a door was inserted behind it in the cleft c1 near the choice area and the door placed in cleft c2 was removed. As soon as the animal entered the goal-box, the door was placed again in the cleft c2. The rat was removed from the goal-box as soon as the pellets were eaten (usually within less than 1 min). The animal was then returned to its home cage for an intertrial interval of 2 to 3 min. Each rat was submitted one to five times/day to five trials sessions in this procedure. Training was initiated when the rat selected the arm giving access to the large reward in more than 14 out of 15 trials.
Third phase: training. Rats underwent one to five times/day five trials training sessions during which a delay was introduced before access to the large reward. After a door was placed in the cleft c2 near each goal-box, the rat was introduced in the starting runway. When it entered one of the two arms, a second door was inserted behind it in the cleft c1 near the choice area, so that rat selecting the arm leading to the large reward could be detained in this arm for a period (referred to as the waiting delay) before having access to the reinforcement. Otherwise, if the animal selected the arm leading to the small reward, the door placed in the cleft c2 was immediately opened, allowing the animal to enter the goal-box. At the beginning of training, the waiting delay was 30 sec. Then, if the percentage of choices of the large and delayed reward remained high (i.e. ≧40%) for more than six sessions, it was increased to 45 sec, and if necessary to 60 sec, 90 sec and finally 120 sec. Drug testing began when the animal selected the large and delayed reward in two trials out of five (or less) in two consecutive sessions and in one trial out of five (or less) in the following session.
Drug testing was conducted over six consecutive test-sessions of five trials each, during which the access to the large reward was preceded by the waiting delay. Test sessions were: Two control pre-drug sessions: control pre-drug session 1 and control pre-drug session 2; Two drug sessions: drug session 1 and drug session 2; Two control post-drug sessions: control post-drug session 1 and control post-drug session 2.

[4] = test system: dopaminergic neurons in the ventral tegmental area; experiment: Spontaneous DA cell firing in the VTA of anaesthetised rats (extracellular single-cell recordings); conditions: mean ± SEM
Method: Subjects. Male Wistar rats (Harlan, The Netherlands) weighing 270-340 g are used. The animals are housed under a 12-hr light/dark cycle under controlled conditions for regular in-door temperature (21±2° C.) and humidity (55±5%) with food and tap water available ad libitum.
Administration of compound. […] These i.v. doses match the s.c. dose range of 0-10 mg/kg.
Statistical analysis. Drug effects are assessed by statistical comparison of the mean firing rate calculated from the 2-3 min period immediately before the first drug administration (baseline) to the mean firing rate calculated from at least 60 s at the maximal drug effect. Data are analysed statistically by a one-way analysis of variance (ANOVA) followed by Student-Newman-Keuls post hoc test. A p-value less than 0.05 is considered significant.

[5] = Rattus norvegicus, sc, read-out: % inhibition of avoidance (Std. dev.) Relative to baseline

CCOC(=O)Nc1ccc(NCc2ccc(F)cc2)cc1N [Compound 1, reference compound]
ED50 [1]: 2.3 mg/kg | Motility inhibition ED50 (mg/kg) ± std. dev. (basal locomotor activity): >8.1 mg/kg | inhibition at 5 mg/kg [2, 5]: 1% | inhibition at 10 mg/kg [2, 5]: 59% | Escape failures (effect on motor performance) ([2]; rats, all tested doses (2.5-10 mg/kg s.c.), data not shown): None of the tested doses cause any incidences of escape failures | % Choice of the large but delayed reward on Drug sessions ([3]; 5 mg/kg s.c. 30 min before the test): 26.7 ± 3.3 % | % Choice of the large but delayed reward on Control sessions ([3]; placebo administered before control (pre-drug and post-drug) sessions of the same group): 10.8 ± 2.0% | Spontaneous DA cell firing rate in the VTA ([4]; cumulated dose 0.3 mg/kg i.v.): 95.4 ± 5.0 (4) percentage of baseline firing rate | Spontaneous DA cell firing rate in the VTA ([4]; cumulated dose 1.0 mg/kg i.v.): 90.5 ± 4.6 (5) percentage of baseline firing rate | Spontaneous DA cell firing rate in the VTA ([4]; cumulated dose 2.0 mg/kg i.v.): 81.1 ± 5.1 (5) percentage of baseline firing rate | Spontaneous DA cell firing rate in the VTA ([4]; cumulated dose 4.0 mg/kg i.v.): 67.1 ± 3.7 (4) percentage of baseline firing rate | Spontaneous DA cell firing rate in the VTA ([4]; cumulated dose 6.0 mg/kg i.v.): 60.6 ± 0.7 (2) percentage of baseline firing rate
